Data from ChEMBL document CHEMBL1201862, “PubChem BioAssay data set” (2004).
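Cultured in 96-well plates, cells were exposed to test compound for 48 hours across five concentrations. At the GI50, growth is halved.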 Calls of active or inactive are those of the source. Cut-off read from the data, not from the text of the source: active = GI50 up to about 1.1 µM and inactive = higher.

Tests used:
Assay in all cases: DTP human tumour cell line panel, 48 h
BT-549 = tested on: BT-549
CCRF-CEM = tested on: CCRF-CEM
OVCAR-8 = tested on: OVCAR-8
PC-3 = tested on: PC-3
UO-31 = tested on: UO-31
MDA-MB-231 = tested on: MDA-MB-231
Hs-578T = tested on: Hs-578T
CAKI-1 = tested on: CAKI-1
MDA-N = tested on: MDA-N
HL-60 = tested on: HL-60
A549 = tested on: A549
RXF 393 = tested on: RXF 393
SN12C = tested on: SN12C
M14 = tested on: M14
MDA-MB-435 = tested on: MDA-MB-435
NCI-H460 = tested on: NCI-H460
SK-MEL-28 = tested on: SK-MEL-28
SK-MEL-5 = tested on: SK-MEL-5
NCI-H226 = tested on: NCI-H226

Measured: GI50

O=C(O)c1ccccc1NCn1c(=S)sc2ccccc21
inactive: BT-549 > 100 µM | CCRF-CEM 23.4 µM | OVCAR-8 > 100 µM | PC-3 45.6 µM | UO-31 51.2 µM | MDA-MB-231 51.8 µM | Hs-578T > 100 µM | CAKI-1 > 100 µM | MDA-N > 100 µM | HL-60 19.6 µM | A549 68.7 µM | RXF 393 > 100 µM | SN12C 35.1 µM | M14 > 100 µM | MDA-MB-435 83 µM | NCI-H460 21.9 µM | SK-MEL-28 > 100 µM

CC(C)(C)c1ccc(O)c(CN(Cc2cc(C(C)(C)C)ccc2O)C2CCCCC2)c1
inactive: BT-549 19.8 µM | CCRF-CEM 27.5 µM | OVCAR-8 15.9 µM | PC-3 17.5 µM | UO-31 23.2 µM | MDA-MB-231 18 µM | Hs-578T 22.6 µM | CAKI-1 26.2 µM | MDA-N 14.7 µM | A549 16.2 µM | RXF 393 17.4 µM | SN12C 16.4 µM | M14 13.6 µM | MDA-MB-435 14.5 µM | SK-MEL-5 15.8 µM | NCI-H460 16.7 µM | SK-MEL-28 14.5 µM

O=[N+]([O-])c1ccc(Cl)cc1N/N=C/c1cccc2cccnc12
inactive: BT-549 > 100 µM | CCRF-CEM 34.8 µM | OVCAR-8 48.2 µM | PC-3 > 100 µM | UO-31 33.1 µM | MDA-MB-231 > 100 µM | Hs-578T 30.8 µM | CAKI-1 > 100 µM | MDA-N > 100 µM | HL-60 > 100 µM | A549 > 100 µM | RXF 393 > 100 µM | SN12C > 100 µM | M14 > 100 µM | MDA-MB-435 > 100 µM | SK-MEL-5 > 100 µM | NCI-H460 > 100 µM | SK-MEL-28 > 100 µM

CC(NC(=O)C(OC(=O)C(C)NC(=O)OC(C)(C)C)C(C)C)C(=O)OC(C(=O)O)C(C)C (centres undefined)
inactive: BT-549 > 100 µM | OVCAR-8 > 100 µM | PC-3 > 100 µM | UO-31 > 100 µM | MDA-MB-231 > 100 µM | Hs-578T > 100 µM | NCI-H226 > 100 µM | CAKI-1 > 100 µM | MDA-N > 100 µM | A549 > 100 µM | RXF 393 > 100 µM | SN12C > 100 µM | M14 > 100 µM | MDA-MB-435 > 100 µM | SK-MEL-5 > 100 µM | NCI-H460 > 100 µM | SK-MEL-28 > 100 µM

C[C@@H]1CC(=O)C[C@@H]2CC[C@H]3[C@@H]4CC[C@H](OC(=O)c5cccc6cc7ccccc7nc56)[C@H]4CC[C@@H]3[C@H]21
inactive: BT-549 26.1 µM | OVCAR-8 16 µM | PC-3 12.1 µM | UO-31 16.9 µM | MDA-MB-231 15.9 µM | Hs-578T 21.6 µM | NCI-H226 26.5 µM | CAKI-1 17.4 µM | MDA-N 13.5 µM | A549 25.1 µM | RXF 393 18.1 µM | SN12C 16.6 µM | M14 15.5 µM | MDA-MB-435 15.8 µM | SK-MEL-5 13.2 µM | NCI-H460 14.1 µM | SK-MEL-28 28.6 µM

Oc1c(C2=NNC(c3ccc(Cl)cc3Cl)C2)ccc2ccccc12 (centres undefined)
inactive: BT-549 69.2 µM | CCRF-CEM 5.26 µM | OVCAR-8 29.4 µM | PC-3 31.6 µM | UO-31 54.3 µM | MDA-MB-231 46.5 µM | Hs-578T 35.6 µM | NCI-H226 50.4 µM | CAKI-1 66.5 µM | MDA-N 19.5 µM | A549 29 µM | RXF 393 37.9 µM | SN12C 32.6 µM | M14 26.5 µM | MDA-MB-435 22.8 µM | SK-MEL-5 52 µM | NCI-H460 30.1 µM | SK-MEL-28 45.7 µM

C=C(C)C(=O)O[C@H]1CC2=CC(CC(C)=C[C@H]3OC(=O)C(=C)C13)OC2=O (some centres undefined)
inactive: BT-549 16.3 µM | CCRF-CEM 4.74 µM | OVCAR-8 35.8 µM | PC-3 23 µM | UO-31 > 10 µM | MDA-MB-231 25.2 µM | Hs-578T 99.1 µM | NCI-H226 > 100 µM | CAKI-1 17.2 µM | MDA-N 24.4 µM | HL-60 3.65 µM | A549 > 100 µM | SN12C 22.1 µM | M14 29.4 µM | MDA-MB-435 29.3 µM | SK-MEL-5 68.2 µM | NCI-H460 31.1 µM | SK-MEL-28 14.1 µM

C[C@H]1[C@H]2[C@H]3CC[C@@H]4[C@@]5(C)CC[C@H](O)C(C)(C)[C@@H]5CC[C@@]4(C)[C@]3(C)C[C@H](O)[C@@]2(C)C[C@H]2O[C@]21C
inactive: BT-549 20.4 µM | CCRF-CEM 32.4 µM | OVCAR-8 19.6 µM | PC-3 13.7 µM | MDA-MB-231 18 µM | Hs-578T 25.2 µM | CAKI-1 25.1 µM | MDA-N 18.9 µM | HL-60 44 µM | A549 16.7 µM | RXF 393 16.7 µM | SN12C 16.9 µM | M14 25.5 µM | MDA-MB-435 18.9 µM | SK-MEL-5 16.6 µM | NCI-H460 18.9 µM | SK-MEL-28 15.5 µM

C/C(=C\Cc1ccc(F)cc1)CCCCCC/C(C)=C/Cc1ccc(F)cc1
inactive: BT-549 28.6 µM | CCRF-CEM 8.28 µM | OVCAR-8 14.4 µM | PC-3 15.8 µM | UO-31 10.7 µM | MDA-MB-231 17.9 µM | Hs-578T 30.8 µM | CAKI-1 9.89 µM | MDA-N 18.5 µM | A549 3.65 µM | RXF 393 20.7 µM | SN12C 15.7 µM | M14 17.4 µM | MDA-MB-435 16.5 µM | SK-MEL-5 12.1 µM | NCI-H460 4.71 µM

CCOC(=O)c1[nH]c2ccccc2c1C(=O)C[C@H](NC(=O)C(F)(F)F)C(=O)OC
inactive: BT-549 > 100 µM | CCRF-CEM > 100 µM | OVCAR-8 > 100 µM | PC-3 > 100 µM | UO-31 75.3 µM | MDA-MB-231 > 100 µM | Hs-578T > 100 µM | NCI-H226 > 100 µM | CAKI-1 > 100 µM | MDA-N > 100 µM | HL-60 > 100 µM | A549 > 100 µM | SN12C > 100 µM | M14 > 100 µM | MDA-MB-435 > 100 µM | SK-MEL-5 > 100 µM | NCI-H460 29.3 µM | SK-MEL-28 > 100 µM

COC(=O)[C@]12C3=C(O)C(=O)C[C@H]1OC[C@H]2C=CC3
inactive: BT-549 > 100 µM | OVCAR-8 > 100 µM | PC-3 > 100 µM | UO-31 > 100 µM | MDA-MB-231 > 100 µM | Hs-578T > 100 µM | CAKI-1 > 100 µM | MDA-N > 100 µM | A549 > 100 µM | RXF 393 > 100 µM | SN12C > 100 µM | M14 > 100 µM | MDA-MB-435 > 100 µM | SK-MEL-5 > 100 µM | NCI-H460 > 100 µM | SK-MEL-28 > 100 µM
